# Active and inactive are the calls of the source. The calls are words filed in the database; no cut-off is given here.
# Tests used:
# MGC-803 [1] = experiment: Inhibition of cell proliferation in human MGC-803 cells at 10 uM measured by SRB assay; format: functional, cell-based; settings: time 72.0 hrs
# MGC-803 [2] = experiment: Induction of apoptosis in human MGC-803 cells assessed as late apoptotic cells at 2.5 uM measure after 24 hrs by Annexin-PI staining based Flowcytometry method (reference value: 7.06%); format: functional
# BGC-823 = experiment: Antiproliferative activity against human BGC-823 cells assessed as inhibition of cell growth at measured after 72 hrs by SRB assay; format: functional
# MGC-803 [3] = experiment: Induction of apoptosis in human MGC-803 cells assessed as late apoptotic cells at 5 uM measure after 24 hrs by Annexin-PI staining based Flowcytometry method (reference value: 7.06%); format: functional
# MGC-803 [4] = experiment: Induction of apoptosis in human MGC-803 cells assessed as viable cells at 2.5 uM measure after 24 hrs by Annexin-PI staining based Flowcytometry method (reference value: 80%); format: functional; settings: read-out: Activity
# SGC-7901 [5] = experiment: Induction of apoptosis in human SGC-7901 cells assessed as viable cells at 2.5 uM measure after 24 hrs by Annexin-PI staining based Flowcytometry method (reference value: 94.9%); format: functional; settings: read-out: Activity
# MGC-803 [6] = experiment: Antiproliferative activity against human MGC-803 cells assessed as inhibition of cell growth incubated with compound for 1 to 24 hrs and measured 72 hrs after replacement of media by SRB assay; format: functional, cell-based; settings: time 1-24 hrs
# A549 = experiment: Antiproliferative activity against human A549 cells assessed as inhibition of cell growth at measured after 72 hrs by SRB assay; format: functional
# MGC-803 [7] = experiment: Induction of apoptosis in human MGC-803 cells assessed as viable cells at 5 uM measure after 24 hrs by Annexin-PI staining based Flowcytometry method (reference value: 80%); format: functional; settings: read-out: Activity
# MGC-803 [8] = experiment: Induction of apoptosis in human MGC-803 cells assessed as increase in ROS production preincubated for 1 hr with NAC followed by compound addition at 5 uM measured after 24 hrs by DCHF-DA staining based Flowcytometry method; format: functional, cell-based
# MGC-803 [9] = experiment: Induction of morphological changes in human MGC-803 cells assessed as cell shrinkage at 5 uM incubated for 1 hrs by bright field microscopic analysis; format: functional, cell-based
# MGC-803 [10] = experiment: Induction of apoptosis in human MGC-803 cells assessed as early apoptotic cells at 5 uM measure after 24 hrs by Annexin-PI staining based Flowcytometry method (reference value: 9.8%); format: functional
# MGC-803 [11] = experiment: Induction of apoptosis in human MGC-803 cells assessed as increase in ROS production at 10 uM measured after 24 hrs by DCHF-DA staining based Flowcytometry method; format: functional, cell-based
# MGC-803 [12] = experiment: Induction of apoptosis in human MGC-803 assessed by cleaved PARP levels incubated for 1 hr with Z-VAD-FMK followed by compound addition measured by western blot assay; format: functional, cell-based
# SGC-7901 [13] = experiment: Induction of apoptosis in human SGC-7901 cells assessed as early apoptotic cells at 0.625 uM measure after 24 hrs by Annexin-PI staining based Flowcytometry method (reference value: 2.68%); format: functional
# SGC-7901 [14] = experiment: Induction of apoptosis in human SGC-7901 cells assessed as early apoptotic cells at 2.5 uM measure after 24 hrs by Annexin-PI staining based Flowcytometry method (reference value: 2.68%); format: functional
# MKN-45 = experiment: Antiproliferative activity against human MKN-45 cells assessed as inhibition of cell growth at measured after 72 hrs by SRB assay; format: functional
# SGC-7901 [15] = experiment: Induction of apoptosis in human SGC-7901 cells assessed as necrotic cells at 10 uM measure after 24 hrs by Annexin-PI staining based Flowcytometry method (reference value: 1.16%); format: functional
# MGC-803 [16] = experiment: Antiproliferative activity in human MGC-803 cells assessed as cell viability preincubated with chloroquine followed by compound addition measured after 24 hrs by SRB staining method; format: functional, cell-based
# SGC-7901 [17] = experiment: Induction of apoptosis in human SGC-7901 cells assessed as early apoptotic cells at 1.25 uM measure after 24 hrs by Annexin-PI staining based Flowcytometry method (reference value: 2.68%); format: functional
# MGC-803 [18] = experiment: Induction of apoptosis in human MGC-803 cells assessed as accumulation of cleaved PARP protein at 0.625 to 10 uM measured after 24 hrs by western blot assay; format: functional, cell-based; settings: dose 0.625-10 µM
# SGC-7901 [19] = experiment: Induction of apoptosis in human SGC-7901 cells assessed as necrotic cells at 2.5 uM measure after 24 hrs by Annexin-PI staining based Flowcytometry method (reference value: 1.16%); format: functional
# MGC-803 [20] = experiment: Antiproliferative activity in human MGC-803 cells assessed as inhibition of cell viability preincubated with 3-methyladenine followed by compound addition measured after 24 hrs by SRB staining method; format: functional, cell-based
# MGC-803 [21] = experiment: Induction of apoptosis in human MGC-803 cells assessed as viable cells at 0.625 uM measure after 24 hrs by Annexin-PI staining based Flowcytometry method (reference value: 80%); format: functional; settings: read-out: Activity
# MGC-803 [22] = experiment: Induction of apoptosis in human MGC-803 cells assessed as viable cells at 1.25 uM measure after 24 hrs by Annexin-PI staining based Flowcytometry method (reference value: 80%); format: functional; settings: read-out: Activity
# MGC-803 [23] = experiment: Induction of apoptosis in human MGC-803 assessed by cleaved PARP levels incubated for 1 hr with Z-LEHD-FMK followed by compound addition measured by western blot assay; format: functional, cell-based
# MGC-803 [24] = experiment: Induction of morphological changes in human MGC-803 cells assessed as cell shrinkage at 10 uM incubated for 1 hrs by bright field microscopic analysis; format: functional, cell-based
# MGC-803 [25] = experiment: Induction of apoptosis in human MGC-803 cells assessed as late apoptotic cells at 10 uM measure after 24 hrs by Annexin-PI staining based Flowcytometry method (reference value: 7.06%); format: functional
# MGC-803 [26] = experiment: Induction of apoptosis in human MGC-803 cells assessed as necrotic cells at 1.25 uM measure after 24 hrs by Annexin-PI staining based Flowcytometry method (reference value: 3.13%); format: functional
# MGC-803 [27] = experiment: Induction of apoptosis in human MGC-803 cells assessed as early apoptotic cells at 1.25 uM measure after 24 hrs by Annexin-PI staining based Flowcytometry method (reference value: 9.8%); format: functional
# SGC-7901 [28] = experiment: Induction of apoptosis in human SGC-7901 cells assessed as late apoptotic cells at 5 uM measure after 24 hrs by Annexin-PI staining based Flowcytometry method (reference value: 1.29%); format: functional
# HGC-27 = experiment: Antiproliferative activity against human HGC-27 cells assessed as inhibition of cell growth at measured after 72 hrs by SRB assay; format: functional
# MGC-803 [29] = experiment: Antiproliferative activity against human MGC-803 cells assessed as inhibition of cell growth at 10 uM measured after 72 hrs by SRB assay relative to control; format: functional
# MGC-803 [30] = experiment: Induction of apoptosis in human MGC-803 cells assessed as increase in ROS production preincubated for 1 hr with NAC followed by compound addition at 2.5 uM measured after 24 hrs by DCHF-DA staining based Flowcytometry method; format: functional, cell-based
# MGC-803 [31] = experiment: Inhibition of cell proliferation in human MGC-803 cells at 2.5 uM measured after 72 hrs by SRB assay; format: functional, cell-based
# MGC-803 [32] = experiment: Induction of apoptosis in human MGC-803 cells assessed as accumulation of cleaved caspase 9 protein at 0.625 to 10 uM measured after 24 hrs by western blot assay; format: functional, cell-based; settings: dose 0.625-10 µM
smiles,measurement,setting,value
Cc1cc(Nc2ccc(C(=O)/C=C/c3cccc(Br)n3)cc2)n2nc(SCc3nc4ccccc4[nH]3)nc2n1,inhibition,MGC-803 [1],Active
same,Activity,MGC-803 [2],4.7%
same,GI50,BGC-823,640 nM
same,Activity,MGC-803 [3],15.4%
same,viability at 2.5 µM,MGC-803 [4],86.4%
same,viability at 2.5 µM,SGC-7901 [5],88.3%
same,inhibition,MGC-803 [6],Active
same,GI50,A549,> 10000 nM
same,viability at 5 µM,MGC-803 [7],73.8%
same,Activity,MGC-803 [8],inactive
same,Activity,MGC-803 [9],Active
same,Activity,MGC-803 [10],6.25%
same,Activity,MGC-803 [11],Active
same,Activity,MGC-803 [12],inactive
same,Activity,SGC-7901 [13],2.25%
same,Activity,SGC-7901 [14],5%
same,GI50,MKN-45,640 nM
same,Activity,SGC-7901 [15],4.79%
same,inhibition,MGC-803 [16],inactive
same,Activity,SGC-7901 [17],1.59%
same,Activity,MGC-803 [18],Active
same,Activity,SGC-7901 [19],1.15%
same,inhibition,MGC-803 [20],Active
same,viability at 0.625 µM,MGC-803 [21],91.6%
same,viability at 1.25 µM,MGC-803 [22],88.6%
same,Activity,MGC-803 [23],inactive
same,Activity,MGC-803 [24],Active
same,Activity,MGC-803 [25],36.4%
same,Activity,MGC-803 [26],2.25%
same,Activity,MGC-803 [27],7.21%
same,Activity,SGC-7901 [28],29.8%
same,GI50,HGC-27,640 nM
same,inhibition at 10 µM,MGC-803 [29],94.4%
same,Activity,MGC-803 [30],inactive
same,inhibition,MGC-803 [31],inactive
same,Activity,MGC-803 [32],Active
